Patent publication US6806257B1, “Flavones as inducible nitric oxide synthase inhibitors, cyclooxygenase-2 inhibitors and potassium channel activators” (priority 1999, dated 2004)

How the values were obtained:
[1] = tested on: porcine cerebral arteries; test: In vitro tissue bath vasorelaxation of precontracted porcine cerebral arteries; details: for relaxation of cerebral arteries: concentrations as high as 100 μM, n=4
[2] = tested on: LPS-induced NO production in RAW264.7 macrophages; test: LPS-induced nitrite (NO) production in RAW264.7 macrophages, Griess reaction; assay type: cell-based, mouse; details: for NO: 24 hours; for IC50: Mus musculus, RAW264.7, together with LPS (100 μg/mL) for 24 hours, n=3, read-out: IC50 in inhibiting LPS-induced NO production
Method: (§1) Cells. RAW264.7, a mouse macrophage cell line, was obtained from American Type Culture Collection. Cells were cultured in RPMI-1640 medium (available from Gibco Life Technology, in Gaithersburg, Md.) supplemented with 2 mM L-glutamine, antibiotics (100 units/ml penicillin-A and 100 units/ml streptomycin) and 10% heat-inactivated fetal bovine serum (Gibco/BRL) and maintained at 37° C in a humidified incubator containing 5% CO2.
Nitrite assay. The nitrite concentration in the medium was measured as an indicator of NO production according to the Griess reaction (Kim et al., J. Immunol. 153: 4741-4748). One hundred microliters of each supernatant was. mixed with the same volume of Griess reagent (1% sulfanilamide in 5% phosphoric acid and 0. 1% naphthylethylenediamine dihydrochloride in water); absorbency of the mixture at 550 nm was determined with an enzyme-linked immunosorbent assay plate reader (Dynatech MR-7000; Dynatech Labs, Chantilly, Va.).
The effects of flavonoids, ellagitannins, anthraquinones on LPS-induced NO production in macrophages were studied as follows. The chemical structures of two flavonoids (myricitrin, N1; oroxylin A, N2) four ellagitannins (penta-O-galloyl-β-glucopyranose, N3; woodfordin C, N4; onothein B, N5; cuphiin, N6), and two anthraquinones (emodin, N7; physcion, N8) that were used in the present study were shown in FIG. 1. The effects of these eight compounds on NO production in RAW264.7 macrophages were investigated. The accumulated nitrite in the culture medium was used as an index for NO synthesis from these cells. […]

[3] = tested on: iNOS; test: LPS-induced iNOS expression in RAW264.7 macrophages (western/northern blot); assay type: cell-based, mouse; details: for increased expression of iNOS in NLA or L-NAME plus LPS treated cells: NLA (or L-NAME) plus LPS co-treated
Method: as §1
(§2) Western blots. Total cellular extract, cytosolic fractions (for IkB) and nuclear fraction (for p65 antibody) were prepared according to Muller et al., Immunobiology, 187, 233-256, 1993 and separated on sodium dodecyl sulfatepolyacrylamide minigels (8% for iNOS or COX-2, and 10% for IkB or p65) and transferred to immobilon polyvinylidene difluoride membranes (Millipore, Bedford, Mass.). The membrane was incubated overnight at 4° C. with 1% bovine serum albumin and then incubated with anti-iNos, COX-2, α-Tubulin monoclonal antibodies (Transduction Laboratories, Lexington, Ky.), anti-IkB or anti-p65 polyclonal antibodies (Santa Cruz Biochemicals, Santa Cruz, Calif.). iNOS, IkB, p65, Cox-2, α-Tubulin were detected by NBT and BCIP staining (Sigma Chemical Co., St. Louis, Mo.).
Northern blot analysis. Total RNA (20 μg/lane) were separated by electrophoresis on 1.2% agarose gel containing 6.7% formaldehyde and transformed to a Hybond-N nylon membrane (American Life Science) in 20×standard saline citrate (3 M sodium chloride and 0.3 M sodium citrate, pH 7.0). After heating at 80° C. for 2 hours and prehybridization for 4 hours, the filters were hybridized with ^32P-labeled murine iNOS cDNA probes at a concentration of 3×10^6 cpm/ml for 16-18 hours at 42° C. The probe was labeled with [α-32P] dCTP by using Random Primer labeling kit (Stratagene, La Jolla, Calif.). Then, the filters were washed, dried and autoradiographed with Kodak-X-Omat XAR-film using intensifying screens at −80° C.

[4] = tested on: COX-2; test: LPS-induced COX-2 expression in RAW264.7 macrophages (western/northern blot); assay type: cell-based, mouse; details: for LPS-induced COX-2 protein: 20, 40 μM with LPS (100 ng/mL) for 24 hours; for basal COX-2 expression, compound alone: no LPS
Method: as §1, §2

[5] = tested on: iNOS; test: Indirect iNOS enzyme assay: NO in medium of LPS-pretreated intact RAW 264.7 cells; assay type: cell-based, mouse; details: for iNOS enzyme activity in intact cells by nitrite production in the medium: added to cells pre-treated with LPS
[6] = tested on: iNOS; test: Direct iNOS enzyme activity assay in RAW 264.7 cell lysates; assay type: biochemical, mouse; details: for NO production by direct enzyme activity assay, compound added to lysate (Table 3): lysates of LPS-treated cells
[7] = tested on: COX-2; test: COX-2 enzyme activity: PGE2 from added arachidonic acid in LPS-treated RAW 264.7 cells; assay type: cell-based, mouse; details: for PGE2: then arachidonic acid (100 μM) 15 min; for PGE2 production using added arachidonic acid as a substrate: added after COX-2 induction by LPS
[8] = tested on: LPS-induced PGE2 production in RAW 264.7 macrophages; test: LPS-induced PGE2 production in RAW 264.7 macrophages (co-treatment); assay type: cell-based, mouse; details: 24 hours
Method: Un-stimulated RAW 264.7 macrophages in culture medium for 24 hours produced basal amount of PGE2 (1.5 ng/mL) in the medium.

[9] = tested on: NF-kB (p65) / IkB; test: Nuclear p65 / cytosolic IkB western blot in LPS-treated RAW264.7 macrophages; assay type: cell-based, mouse; details: 20 μg/ml, 100 ng/ml LPS for 30 minutes
Method: as §2
NF-kB is a transcription factor that is activated in response to stimulation by LPS, and activation of NF-kB is an essential factor in inducing iNOS gene expression in macrophages (Kim, Y. M., Biochem. Biophys. Res. Commun. 236, 655-660, 1997). To assess the effect of these compounds (20 μg/ml) on early stage of iNOS gene expression, the activation of NF-kB in RAW264.7 macrophages was examined using the electrophoretic mobility shift assay (EMSA) (FIGS. 6i and 6ii).

[10] = tested on: iNOS; test: LPS-induced nitrite production and iNOS expression in Bcl-2-overexpressed RAW264.7 cells; assay type: cell-based, mouse; details: 20 μg/ml, LPS 100 ng/ml, Bcl-2/RAW-1 and Bcl-2/RAW-2 cells
[11] = tested on: RAW264.7 cells; details: mouse, 20 μg/ml
[12] = LPS + L-NAME (2 mM) + compound 40 μM
[13] = LPS + NLA (2 mM) + compound 40 μM
[14] = different concentrations together with LPS for 24 hours
[15] = 20 μM added for 12 hours after LPS (100 ng/ml) 12 hours pretreatment
[16] = 40 μM added for 12 hours after LPS (100 ng/ml) 12 hours pretreatment
[17] = 20 μM added to lysate of LPS (100 ng/mL, 12 hr)-treated cells
[18] = 40 μM added to lysate of LPS (100 ng/mL, 12 hr)-treated cells
[19] = lysates of LPS-pretreated cells incubated with 20 μM for 12 hours
[20] = lysates of LPS-pretreated cells incubated with 40 μM for 12 hours
[21] = 20 μM for 30 min after LPS 6 hours
[22] = 40 μM for 30 min after LPS 6 hours

With `Nc1ccncc1` [4-aminopyridine, reference compound] the “effect of the blocker/inhibitor on oroxylin A-induced relaxation” value ([1]; arteries without endothelial cells, U-46619) was “significantly inhibited”.

Work on `O=c1cc(-c2ccccc2)oc2cc(O)c(O)c(O)c12` [baicalein] yielded an NO [2, 12] of 7.9 ± 1.2 μmole/4 × 10^5, an NO [2, 13] of 8.3 ± 1.3 μmole/4 × 10^5 and an IC50 [2] of 19.4 ± 1 µM. The LPS-induced nitrite production [2, 14] was “significant concentration-dependent inhibition”, the “increased expression of iNOS in NLA or L-NAME plus LPS treated cells” value [3] was “inhibited” and the “LPS-induced COX-2 protein” value [4] was “did not inhibit”. For the same compound, the “basal COX-2 expression, compound alone” value [4] was “did not affect”, the NO in medium [5, 15] was 15.4 ± 0.3 μM/6 × 10^5 cells and the NO in medium [5, 16] was 13.1 ± 0.9 μM/6 × 10^5 cells. The “iNOS enzyme activity in intact cells by nitrite production in the medium” value [5] was “did not affect”, the “direct effect on iNOS enzyme activity” value [6] was “did not directly affect” and the “iNOS specific activity: NO formation” value [6, 17] was 7.2 ± 0.1 μM/200 μg total protein. For the same compound, the “iNOS specific activity: NO formation” value [6, 18] was 9.2 ± 1.8 μM/200 μg total protein, the “iNOS specific activity: NO formation” value [6, 19] was 9.8 ± 2.3 μM/200 μg protein and the “iNOS specific activity: NO formation” value [6, 20] was 8.1 ± 1.9 μM/200 μg protein. The “NO production by direct enzyme activity assay, compound added to lysate (Table 3)” value [6] was “did not inhibit”, the “direct effect on COX-2 enzyme activity” value [7] was “did not directly affect” and the PGE2 [7, 21] was 6.1 ± 0.2 ng/mL. For the same compound, the PGE2 [7, 22] was 6.2 ± 0.5 ng/mL, the “PGE2 production using added arachidonic acid as a substrate” value [7] was “no decrease” and the PGE2 [8, 12] was 6.2 ± 0.5 ng/mL. For the same compound, the PGE2 [8, 13] was 5.5 ± 0.8 ng/mL.

For `O=C(O)[C@H]1O[C@@H](Oc2cc3oc(-c4ccccc4)cc(=O)c3c(O)c2O)[C@H](O)[C@@H](O)[C@@H]1O` [baicalin], the NO [2, 12] was 8.5 ± 0.9 μmole/4 × 10^5, the NO [2, 13] was 7.1 ± 0.3 μmole/4 × 10^5 and the IC50 [2] was 15 ± 1.4 µM. For the same compound, the LPS-induced nitrite production [2, 14] was “significant concentration-dependent inhibition”, the “increased expression of iNOS in NLA or L-NAME plus LPS treated cells” value [3] was “inhibited” and the “LPS-induced COX-2 protein” value [4] was “did not inhibit”. The “basal COX-2 expression, compound alone” value [4] was “did not affect”, the NO in medium [5, 15] was 14.5 ± 0.5 μM/6 × 10^5 cells and the NO in medium [5, 16] was 14.8 ± 1.5 μM/6 × 10^5 cells. For the same compound, the “iNOS enzyme activity in intact cells by nitrite production in the medium” value [5] was “did not affect”, the “direct effect on iNOS enzyme activity” value [6] was “did not directly affect” and the “iNOS specific activity: NO formation” value [6, 17] was 8.7 ± 1.0 μM/200 μg total protein. For the same compound, the “iNOS specific activity: NO formation” value [6, 18] was 9.0 ± 1.1 μM/200 μg total protein, the “iNOS specific activity: NO formation” value [6, 19] was 8.7 ± 1.3 μM/200 μg protein and the “iNOS specific activity: NO formation” value [6, 20] was 9.4 ± 2.1 μM/200 μg protein. For the same compound, the “NO production by direct enzyme activity assay, compound added to lysate (Table 3)” value [6] was “did not inhibit”, the “direct effect on COX-2 enzyme activity” value [7] was “did not directly affect” and the PGE2 [7, 21] was 6.1 ± 0.6 ng/mL. For the same compound, the PGE2 [7, 22] was 5.9 ± 0.4 ng/mL, the “PGE2 production using added arachidonic acid as a substrate” value [7] was “no decrease” and the PGE2 [8, 12] was 6.1 ± 0.3 ng/mL. The PGE2 [8, 13] was 5.8 ± 1.1 ng/mL.

`Cc1cc(O)c2c(c1)C(=O)c1cc(O)cc(O)c1C2=O` [emodin, Emodin, reference compound] was tested, and the LPS-induced nitrite production ([2]; 5, 10 or 20 μg/ml together with 100 ng/ml LPS for 24 hours) was “significant inhibition”, the “blocking LPS-induced iNOS gene expression, comparison among compounds tested” value [3] was “potent inhibitory effect, comparable to oroxylin A” and the “LPS-induced iNOS protein” value ([3]; 100 ng/ml LPS, western blot) was “inhibited LPS-induced iNOS protein in a concentration-dependent manner”. The “LPS-induced increase of nuclear p65 and decrease of cytosolic IkB” value [9] was “did not block”, the “LPS-induced iNOS gene expression” value [10] was “inhibited” and the LPS-induced nitrite production [10] was “inhibited”. The “relaxation of cerebral arteries” value [1] was “very small relaxation or no response” and the “cytotoxity by MTT assay” value [11] was about 30%.

With `O=C(O[C@@H]1Cc2c(O)cc(O)cc2O[C@@H]1c1cc(O)c(O)c(O)c1)c1cc(O)c(O)c(O)c1` [epigallocatechin gallate, reference compound] the “relaxation of cerebral arteries” value [1] was “very small relaxation or no response”.

In the case of `C[C@@H]1C(=O)O[C@H]2C[C@@]34[C@H]5C[C@@H](C(C)(C)C)[C@]36[C@@H](OC(=O)[C@@H]6O)O[C@@]4(C(=O)O5)[C@]21O` [ginkgolide A, reference compound], the “relaxation of cerebral arteries” value [1] is reported as “very small relaxation or no response”.

For `CC1C(=O)OC2C(O)C34C5CC(C(C)(C)C)C36C(OC(=O)C6O)OC4(C(=O)O5)C12O` (centres unmarked) [ginkgolide B, reference compound], the “relaxation of cerebral arteries” value [1] was “very small relaxation or no response”.
